The values below come from patent US20060057669A1, “Inactive transcription factor tif-ia and uses thereof” (priority 2002, published 2006).

For experiment [1], the system named is pre-rRNA synthesis in NIH3T3 cells. Put plainly: Northern blot of cellular pre-rRNA after mitogenic stimulation. The settings on record: starved NIH3T3 cells stimulated by serum, bFGF, EGF or TPA; 40 μM PD98059, 30 min. It is filed as cell-based. As to the method: (C) PD98059 inhibits mitogenic stimulation of Pol I transcription. NIH3T3 cells were starved in DMEM/0.1% FCS for 12 hr before stimulation by serum, 10 ng/ml bFGF, 50 ng/ml EGF or 0.1 μM TPA in the absence or presence of 40 μM PD98059 for 30 min. Cellular RNA was isolated and the level of pre-rRNA, c-jun mRNA and cytochrome C oxidase (cox) mRNA was monitored on Northern blots.
NIH3T3, HEK293T and CLL39 cells were cultured in Dulbecco's modified Eagles medium (DMEM) supplemented with 10% fetal calf serum. Cells were transfected with 5 μg of DNA per 10^6 cells using the calcium phosphate DNA coprecipitation method. Total RNA was isolated after 48 h and analyzed on Northern blots as described (Voit et al., EMBO J. 18 (1999), 1891-1899). Cellular pre-rRNA levels were monitored by hybridization to antisense RNA complementary to the first 155 nucleotides of unprocessed 45S pre-RNA. Transcripts from the rDNA reporter plasmid were monitored by hybridization to a riboprobe that is complementary to pUC sequences inserted between the rDNA promoter and terminator sequences of pMrl930-BH. […] Transcripts from the rDNA reporter plasmid were monitored by hybridization to a riboprobe that is complementary to pUC sequences inserted between the rDNA promoter and terminator sequences of pMrl930-BH. […]

The test system of another experiment is HEK293T cells. In words: Quantitative fluorimetric viability assay with calcein-AM. It is filed as cell-based. The settings on record: 24, 36, 48 and 60 hr after transfection; 2 μM calcein-AM.

For `COc1cccc(-c2cc(=O)c3ccccc3o2)c1N` [PD98059], in experiment [1], the “effect on serum- and growth factor-induced pre-rRNA synthesis” value was “blocked serum- and growth factor-induced stimulation of pre-rRNA synthesis”.

Consider “TIF-IA: wild-type human transcription initiation factor TIF-IA, accession No. AJ272050”, for which the “cellular growth rate by calcein-AM staining” value in the experiment with HEK293T cells was “did not affect cell viability and growth”.
